# Results from patent US9321737B2, “CDK8-CDK19 selective inhibitors and their use in anti-metastatic and chemopreventative methods for cancer” (SENEX BIOTECHNOLOGY INC, priority 2012, dated 2016).
# System: >450 kinases
# Test: KinomeScan ATP pocket binding inhibition, rest of panel
# Conditions: 2,000 nM
# Source text: (16) The results of this analysis are presented in FIGS. 6A-B in the form of an evolutionary dendrogram of the kinase family, where kinase inhibition is represented by red circles, the size of which represents the magnitude of the inhibition.
smiles,measurement,value
CN1CCN(C(=O)c2ccc3cc(CCNc4ncnc5ccc(C#N)cc45)ccc3c2)CC1 [SNX2-1-165],% inhibition of all other kinases in the panel,≤ 50%
